# In US20230233533A1, “COMPOSITIONS, METHODS OF TREATING AND PREVENTING FUNGAL INFECTIONS, AND METHODS OF INHIBITING PRP8 INTEIN EXPRESSION” (Health Research, Inc., priority 2020, published 2023):
# Several values for one entry are separate records, joined by “and”; a condition that tells them apart may be missing. Equal entries are not always repeated.
# Tests used:
# Prp8 intein [1] = target: T1, Prp8 intein (Cryptococcus gattii, UniProt E6R027); test: Split Renilla luciferase RLuc-Prp8 intein splicing assay; type: biochemical; conditions: compound at 20 μM
# Prp8 intein [2] = target: T1, Prp8 intein; test: MIG-Prp8 in-gel splicing assay; type: biochemical; conditions: E. coli lysate, TCEP-triggered
# Protocol: The MIG-Prp8 and Prp8-GFP in-gel splicing assays—The MIG Prp8 and Prp8-GFP splicing assays were carried out as described. […] The samples were analyzed in SDS-PAGE without boiling. The gels were quantified using GFP fluorescence and Coomassie blue staining with the Bio-Rad Gel Doc EZ.
# This reporter system, MIG-Prp8, comprising a fusion protein of the Prp8 intein flanked by maltose binding protein (MBP) and green fluorescent protein (GFP), allowed observation of functional Prp8 intein splicing in Escherichia coli lysate. […] C-terminal cleavage product (CC; GFP) could also be visualized.
# in vitro = type: cell-based, human; conditions: human, CC50 A549
# Method in brief: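 A549 cells (5×10^3 per well) were exposed to compounds at 37 °C for 48 h, and viability was read by MTT assay; N=3.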
# C1A Prp8 intein mutant = target: T2, C1A Prp8 intein mutant (Cryptococcus gattii, UniProt E6R027, C1531A); conditions: C1A versus WT, SPR
# T2 sequence (E6R027 1531-1700 C1531A): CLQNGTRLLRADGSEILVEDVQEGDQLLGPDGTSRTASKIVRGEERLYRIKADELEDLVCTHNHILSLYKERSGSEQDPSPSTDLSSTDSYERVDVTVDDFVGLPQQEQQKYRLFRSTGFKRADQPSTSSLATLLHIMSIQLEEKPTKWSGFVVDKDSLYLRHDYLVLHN
# Protocol: The Prp8 intein and mutants were immobilized onto a ProteOn™ GLH sensor chip (2,500-7,000 RU) (Bio-Rad). A 3-fold dilution series of compounds was injected as the analytes. A blank surface blocked by ethanolamine was used as the control surface. The experiment was carried out at a flow rate of 100 μl/min using a PBSTD buffer containing 1×PBS, 0.005% surfactant P20, and 5% DMSO. Association (ka) and dissociation (kd) rates, as well as the dissociation constant (KD), were obtained by global fitting of the SPR data from multiple concentrations to a simple 1:1 Langmuir binding model, using the ProteOn Manager software suite (Bio-Rad).
# [3] = test system: C. neoformans H99 strain transformed with empty vector, WT Prp8 or AAAA mutant; test: Resistance study, MIC in H99 overexpressing Prp8 intein; type: cell-based, Cryptococcus neoformans
# Protocol: For resistance studies, C. neoformans H99 strain transformed with an empty pXL1-PTEF1 vector, the Prp8-pXL1-PTEF1 (WT Prp8) construct, or the AAAA mutant were used, as described. Li et al., “Cisplatin Protects Mice From Challenge of Cryptococcus Neoformans by Targeting the Prp8 Intein,” Emerging Microbes & Infections 8(1):895-908 (2019), which is hereby incorporated by reference in its entirety. MICs for selected compounds were determined for these transformed cells as described above.
# C. neoformans (H99) = test: In vivo preliminary efficacy study, intranasal infection of BALB/c mice; set-up: species or system Cryptococcus neoformans; conditions: 75 mg/kg oral gavage once daily
# Protocol: FIG. 7 illustrates efficacy of 6G318S in mouse models. BALB/c mice (5-6 wk old, male and female were dosed orally by either vehicle control (VC) or 6G318S-75 mg/kg once daily for 5 days. On day 5, all mice were euthanized, lungs were collected, weighed and homogenized in RPMI-1640-MOPS media. Serial 10-fold dilution of the homogenate is made and a volume of 100 ul is plated on to Sabouraud Dextrose-agar plates with antibiotics. Colonies were counted on day 3 and normalized to weight of the lung.
# Treatment was given for 6 days. On day 6 few mice were euthanized to check the […] in lungs.
structure (smiles),measurement,setting,value
"O=C(Nc1ccc(F)cc1)c1nnsc1S(=O)(=O)c1ccc(Cl)cc1 [6G-318S, 5-[(4-chlorophenyl)sulfonyl]-N-(4-fluorophenyl)-1,2,3-thiadiazole-4-carboxamide]",suppression of RLuc-Prp8 intein splicing activity,Prp8 intein [1],greater than 50%
same,inhibition of MIG-Prp8 splicing,Prp8 intein [2],accumulation of the MIG-Prp8 precursor PP and decrease of LE product in a dose-dependent manner
same,CC50 at 48 h,in vitro,13.9 µg/mL and ~35 µM
same,reduction of binding affinity by Cys1 to alanine mutation,C1A Prp8 intein mutant,~3 fold
same,MIC with empty vector or AAAA mutant Prp8 intein-transformed H99 cells,[3],identical MIC values
same,increase of MIC in H99 transformed with WT Prp8 intein,[3]; compared to H99 with empty vector or AAAA mutant,4 fold
same,fungal cells in lungs versus vehicle controls,C. neoformans (H99),indication of reduction of fungal cells in lungs
